Assay results: patent US8846947B2, “Benzimidazoles and related analogs as sirtuin modulators” (GlaxoSmithKline LLC, priority 2008, dated 2014)
Like-named read-outs stand apart in the source and are kept apart here.

Target: T1, SIRT1 (Homo sapiens, UniProt Q96EB6)
T1 sequence (Q96EB6 1-747): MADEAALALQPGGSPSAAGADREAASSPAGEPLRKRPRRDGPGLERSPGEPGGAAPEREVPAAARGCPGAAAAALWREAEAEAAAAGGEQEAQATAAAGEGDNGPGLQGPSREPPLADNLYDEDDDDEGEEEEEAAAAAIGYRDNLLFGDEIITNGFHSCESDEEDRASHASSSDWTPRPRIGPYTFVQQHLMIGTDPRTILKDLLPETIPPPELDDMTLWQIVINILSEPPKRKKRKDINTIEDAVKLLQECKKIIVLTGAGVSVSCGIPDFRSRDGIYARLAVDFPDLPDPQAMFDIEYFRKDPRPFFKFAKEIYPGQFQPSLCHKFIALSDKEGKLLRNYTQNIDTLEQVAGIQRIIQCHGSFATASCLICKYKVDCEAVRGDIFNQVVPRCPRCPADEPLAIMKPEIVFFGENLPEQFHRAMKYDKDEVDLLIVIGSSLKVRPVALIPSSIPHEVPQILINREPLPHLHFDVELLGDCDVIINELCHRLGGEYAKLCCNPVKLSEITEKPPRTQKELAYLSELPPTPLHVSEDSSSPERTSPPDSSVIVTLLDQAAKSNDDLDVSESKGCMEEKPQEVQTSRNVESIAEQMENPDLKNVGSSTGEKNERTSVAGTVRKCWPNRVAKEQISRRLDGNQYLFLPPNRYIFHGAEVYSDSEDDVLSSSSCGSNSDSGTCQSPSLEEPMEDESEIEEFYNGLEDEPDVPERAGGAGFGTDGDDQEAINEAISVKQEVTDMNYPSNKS
Assay: Mass spectrometry based SIRT1 deacetylase activation assay (acetylated p53-derived peptide substrate)
Type: biochemical

[1] = 0.5 μM peptide substrate, 120 μM βNAD+, 10 nM SIRT1, 25 minutes at 25° C.
[2] = 0.5 μM peptide substrate, 120 μM βNAD+, 10 nM SIRT1, 25 min at 25° C.
[3] = 0.5 μM peptide substrate, 120 μM βNAD+, 10 nM SIRT1, 25 min at 25° C., read-out: EC1.5

For `O=C(Nc1nccs1)c1cc(F)cc2[nH]c(-c3ccc(OC[C@@H](O)CO)cc3C(F)F)nc12` [Compound 831], the EC1.5 [1] was “A (EC1.5<1.0 uM)” and the “Fold Act. (percent maximum fold activation)” value [1] was “A (Fold activation >200%)”.

`O=C(Nc1nccs1)c1cccc2[nH]c(-c3cc(F)cc(Cl)c3OCCN3CCOCC3)nc12` [Compound 543] was tested, and the “Fold Act. (percent maximum fold activation)” value [2] was “B (Fold Activation <200%)” and the EC1.5 [3] was 1000 to 25000 nM.

For `C[C@@H]1CN(c2ccc(C(F)(F)F)c(-c3nc4c(C(=O)Nc5ccccn5)cccc4[nH]3)c2)C[C@H](C)O1` [Compound 663], the EC1.5 [1] was “C (EC1.5 >25 uM)” and the “Fold Act. (percent maximum fold activation)” value [1] was “B (Fold Activation <200%)”.

`Cc1nc(-c2ccccc2)c(-c2nc3c(C(=O)Nc4cccnc4)cccc3[nH]2)s1` [Compound 370] was tested, and the EC1.5 was “A (EC1.5<1.0 uM)” and the “Fold Act. (percent maximum fold activation)” value was “A (Fold activation >200%)”.

With `Cc1nc(C)c(-c2nc3c(C(=O)Nc4ccncc4)cccc3[nH]2)s1` [Compound 318] the EC1.5 was “A (EC1.5<1.0 uM)” and the “Fold Act. (percent maximum fold activation)” value was “A (Fold activation >200%)”.

In the case of `O=C(Nc1nccs1)c1cccc2[nH]c(-c3ccc(F)cc3C(F)F)nc12` [Compound 559, 2-(2-(difluoromethyl)-4-fluorophenyl)-N-(thiazol-2-yl)-1H-benzo[d]imidazole-4-carboxamide], the “Fold Act. (percent maximum fold activation)” value [2] is reported as “A (Fold activation >200%)” and the EC1.5 [3] is reported as less than 1000 nM.

With `O=C(Nc1nc2ccccc2s1)c1cccc2[nH]c(-c3cccc(C(F)(F)F)c3)nc12` [Compound 284] the EC1.5 was “B (EC1.5 1-25 uM)” and the “Fold Act. (percent maximum fold activation)” value was “A (Fold activation >200%)”.

With `O=C(Nc1ccccc1OCC(O)CO)c1cccc2[nH]c(-c3cc(F)ccc3C(F)(F)F)nc12` (stereo not shown) [Compound 730] the EC1.5 [1] was “B (EC1.5 1-25 uM)” and the “Fold Act. (percent maximum fold activation)” value [1] was “A (Fold activation >200%)”.

`O=C(Nc1cccc(CN2CCOCC2)n1)c1cccc2[nH]c(-c3ccc(Cl)cc3C(F)F)nc12` [Compound 819] was tested, and the EC1.5 [1] was “A (EC1.5<1.0 uM)” and the “Fold Act. (percent maximum fold activation)” value [1] was “A (Fold activation >200%)”.

`O=C(Nc1cccnc1Cl)c1cccc2[nH]c(-c3cccc(C(F)(F)F)c3)nc12` [Compound 286] was tested, and the EC1.5 was “B (EC1.5 1-25 uM)” and the “Fold Act. (percent maximum fold activation)” value was “A (Fold activation >200%)”.

For `O=C(Nc1ccccn1)c1cncc2[nH]c(-c3ccc(OC[C@H](O)CO)cc3C(F)(F)F)nc12` [Compound 763], the EC1.5 [1] was “A (EC1.5<1.0 uM)” and the “Fold Act. (percent maximum fold activation)” value [1] was “A (Fold activation >200%)”.

In the case of `O=C(Nc1nccs1)c1cccc2[nH]c(-c3ccccc3)nc12` [Compound 200], the EC1.5 is reported as “B (EC1.5 1-25 uM)” and the “Fold Act. (percent maximum fold activation)” value is reported as “A (Fold activation >200%)”.

With `O=C(Nc1nccs1)c1cccc2[nH]c(-c3ccco3)nc12` [Compound 249] the EC1.5 was “B (EC1.5 1-25 uM)” and the “Fold Act. (percent maximum fold activation)” value was “A (Fold activation >200%)”.

In the case of `Cc1cnc(NC(=O)c2cccc3[nH]c(-c4ccc(Cl)cc4C(F)F)nc23)s1` [Compound 563], the “Fold Act. (percent maximum fold activation)” value [2] is reported as “A (Fold activation >200%)” and the EC1.5 [3] is reported as less than 1000 nM.

For `O=C(NCc1ccccn1)c1cccc2[nH]c(-c3cccc(C(F)(F)F)c3)nc12` [Compound 252], the EC1.5 was “B (EC1.5 1-25 uM)” and the “Fold Act. (percent maximum fold activation)” value was “A (Fold activation >200%)”.

With `O=C(Nc1nccs1)c1cccc2[nH]c(-c3cccc(F)c3)nc12` [Compound 212] the EC1.5 was “B (EC1.5 1-25 uM)” and the “Fold Act. (percent maximum fold activation)” value was “A (Fold activation >200%)”.

`Cc1cc(NC(=O)c2cccc3[nH]c(-c4ccc(F)cc4C(F)(F)F)nc23)no1` [Compound 464] was tested, and the “Fold Act. (percent maximum fold activation)” value [2] was “A (Fold activation >200%)” and the EC1.5 [3] was less than 1000 nM.

With `O=C(Nc1cccc(OCC(O)CO)c1)c1cccc2[nH]c(-c3cc(F)ccc3C(F)(F)F)nc12` (stereo not shown) [Compound 741] the EC1.5 [1] was “A (EC1.5<1.0 uM)” and the “Fold Act. (percent maximum fold activation)” value [1] was “A (Fold activation >200%)”.

`O=C(Nc1ccccn1)c1cccc2[nH]c(-c3ccc(N4CCCC4)cc3C(F)(F)F)nc12` [Compound 605] was tested, and the EC1.5 [1] was “B (EC1.5 1-25 uM)” and the “Fold Act. (percent maximum fold activation)” value [1] was “A (Fold activation >200%)”.

With `O=C(Nc1nccs1)c1cccc2[nH]c(-c3ccc(F)c(Cl)c3)nc12` [Compound 235] the EC1.5 was “B (EC1.5 1-25 uM)” and the “Fold Act. (percent maximum fold activation)” value was “A (Fold activation >200%)”.

In the case of `CC1(C)Cc2cc(-c3nc4c(C(=O)Nc5nccs5)cccc4[nH]3)ccc2O1` [Compound 445], the “Fold Act. (percent maximum fold activation)” value [2] is reported as “A (Fold activation >200%)” and the EC1.5 [3] is reported as 1000 to 25000 nM.

For `O=C(Nc1ncc(CN2CCOCC2)s1)c1cccc2[nH]c(-c3ccccc3C(F)(F)F)nc12` [Compound 780, N-(5-(morpholinomethyl)thiazol-2-yl)-2-(2-(trifluoromethyl)phenyl)-1H-benzo[d]imidazole-4-carboxamide], the EC1.5 [1] was “C (EC1.5 >25 uM)” and the “Fold Act. (percent maximum fold activation)” value [1] was “B (Fold Activation <200%)”.

With `Cc1cnc(NC(=O)c2cc(F)cc3nc(-c4ccccc4C(F)F)[nH]c23)s1` [Compound 833] the EC1.5 [1] was “A (EC1.5<1.0 uM)” and the “Fold Act. (percent maximum fold activation)” value [1] was “A (Fold activation >200%)”.

In the case of `Cc1cccc(-c2nc3c(C(=O)Nc4ccccn4)cccc3[nH]2)c1OCCN1CCOCC1` [Compound 627], the EC1.5 [1] is reported as “B (EC1.5 1-25 uM)” and the “Fold Act. (percent maximum fold activation)” value [1] is reported as “A (Fold activation >200%)”.

With `O=C(Nc1ccccn1)c1cc(N2CCOCC2)cc2[nH]c(-c3ccccc3C(F)F)nc12` [Compound 736] the EC1.5 [1] was “A (EC1.5<1.0 uM)” and the “Fold Act. (percent maximum fold activation)” value [1] was “A (Fold activation >200%)”.

For `O=C(Nc1ccccn1)c1cccc2[nH]c(-c3cc(N4CC[C@H](F)C4)ccc3C(F)(F)F)nc12` [Compound 666], the EC1.5 [1] was “B (EC1.5 1-25 uM)” and the “Fold Act. (percent maximum fold activation)” value [1] was “B (Fold Activation <200%)”.

For `Cc1cc(NC(=O)c2cccc3[nH]c(-c4ccnn4-c4ccccc4)nc23)no1` [Compound 466], the “Fold Act. (percent maximum fold activation)” value [2] was “A (Fold activation >200%)” and the EC1.5 [3] was 1000 to 25000 nM.

With `O=C(Nc1nc(CN2CCOCC2)cs1)c1cccc2[nH]c(-c3cccnc3)nc12` [Compound 795] the EC1.5 [1] was “C (EC1.5 >25 uM)” and the “Fold Act. (percent maximum fold activation)” value [1] was “B (Fold Activation <200%)”.

`Cc1cc(OC[C@H](O)CO)ccc1-c1nc2c(C(=O)Nc3nccs3)cccc2[nH]1` [Compound 793] was tested, and the EC1.5 [1] was “A (EC1.5<1.0 uM)” and the “Fold Act. (percent maximum fold activation)” value [1] was “A (Fold activation >200%)”.

With `O=C(Nc1cccc(OC[C@@H](O)CO)c1)c1cccc2[nH]c(-c3ccc(Cl)cc3C(F)F)nc12` [Compound 699] the EC1.5 [1] was “A (EC1.5<1.0 uM)” and the “Fold Act. (percent maximum fold activation)” value [1] was “A (Fold activation >200%)”.

`Cc1ccc(-c2nc3c(C(=O)Nc4cccc(CN5CCOCC5)n4)cccc3[nH]2)cn1` [Compound 815, 2-(6-methylpyridin-3-yl)-N-(6-(morpholinomethyl)pyridin-2-yl)-1H-benzo[d]imidazole-4-carboxamide] was tested, and the EC1.5 [1] was “A (EC1.5<1.0 uM)” and the “Fold Act. (percent maximum fold activation)” value [1] was “A (Fold activation >200%)”.

With `O=C(Nc1nccs1)c1cccc2[nH]c(-c3ccc(Cl)cc3C(F)(F)F)nc12` [Compound 290] the EC1.5 was “A (EC1.5<1.0 uM)” and the “Fold Act. (percent maximum fold activation)” value was “A (Fold activation >200%)”.

With `Cc1ccc(OCCN2CCOCC2)c(-c2nc3c(C(=O)Nc4nccs4)cccc3[nH]2)c1` [Compound 545] the “Fold Act. (percent maximum fold activation)” value [2] was “A (Fold activation >200%)” and the EC1.5 [3] was less than 1000 nM.

With `O=C(Nc1nccs1)c1cncc2[nH]c(-c3ccc(F)cc3C(F)(F)F)nc12` [Compound 693, 2-(4-fluoro-2-trifluoromethyl-phenyl)-3H-imidazo[4,5-c]pyridine-7-carboxylic acid thiazol-2-ylamide] the EC1.5 [1] was “B (EC1.5 1-25 uM)” and the “Fold Act. (percent maximum fold activation)” value [1] was “B (Fold Activation <200%)”.

For `O=C(Nc1cnccn1)c1cccc2[nH]c(-c3cccc(OC(F)(F)F)c3)nc12` [Compound 205], the EC1.5 was “A (EC1.5<1.0 uM)” and the “Fold Act. (percent maximum fold activation)” value was “A (Fold activation >200%)”.

`O=C(Nc1nccs1)c1cccc2[nH]c(-c3ccnc(N4CCOCC4)c3)nc12` [Compound 269] was tested, and the EC1.5 was “A (EC1.5<1.0 uM)” and the “Fold Act. (percent maximum fold activation)” value was “A (Fold activation >200%)”.

`O=C(Nc1cccnn1)c1cccc2[nH]c(-c3ccc(F)cc3C(F)(F)F)nc12` [Compound 465] was tested, and the “Fold Act. (percent maximum fold activation)” value [2] was “A (Fold activation >200%)” and the EC1.5 [3] was less than 1000 nM.

With `O=C(Nc1cccc2[nH]c(-c3ccc(Cl)cc3C(F)(F)F)nc12)c1cccnc1` [Compound 418] the “Fold Act. (percent maximum fold activation)” value [2] was “A (Fold activation >200%)” and the EC1.5 [3] was 1000 to 25000 nM.

With `Cc1cnc(NC(=O)c2cccc3[nH]c(-c4ccccc4C(F)(F)F)nc23)s1` [Compound 343] the EC1.5 was “A (EC1.5<1.0 uM)” and the “Fold Act. (percent maximum fold activation)” value was “A (Fold activation >200%)”.

With `O=C(Nc1ccccc1)c1cccc2[nH]c(-c3ccc(F)cc3C(F)(F)F)nc12` [Compound 755] the EC1.5 [1] was “A (EC1.5<1.0 uM)” and the “Fold Act. (percent maximum fold activation)” value [1] was “A (Fold activation >200%)”.

In the case of `Cc1cc(NC(=O)c2cccc3[nH]c(-c4ccccc4C(F)(F)F)nc23)n(C)n1` [Compound 354], the EC1.5 is reported as “A (EC1.5<1.0 uM)” and the “Fold Act. (percent maximum fold activation)” value is reported as “A (Fold activation >200%)”.
